Results from patent US8623429B2, “Stabilized anthocyanin compositions” (Omnica GmbH, priority 2007, dated 2014).

Assays:
Assay type in all cases: physicochemical
[1] = Example 3: stability of black currant extract anthocyanosides, 4 hours at 37° C., pH 7.0, with/without DHLA, GSH or L-cysteine (HPLC)
Procedure: (§1) Sample a) 60 mg black currant extract [35% anthocyanosides] (0.037 mmol anthocyanosides expressed as cyanidin-3-O-rutinoside) were added to a 100 ml flask and filled to volume with sodium phosphate buffer (5% [w/w], pH=7.0) and stirred until dissolution was complete. A 1 ml sample was taken immediately, acidified with formic acid to pH=1.0 and analyzed by HPLC for the content of anthocyanosides (Fresh Sample). The remaining solution was kept for 4 hours at 37° C. (water bath) with stirring. Thereafter samples (Blank sample), representing unprotected degradation, were taken and acidified.
Sample b) 20 mg reduced L-glutathione (0.065 mmol) were added to a 100 ml flask with 60 ml sodium phosphate buffer (5% [w/w], pH=7.0) and stirred until dissolution was complete. 60 mg black currant extract [35% anthocyanosides] (0.037 mmol anthocyanosides expressed as cyanidin-3-O-rutinoside) were then added and the flask was filled to volume with sodium phosphate buffer (5% [w/w], pH=7.0) and kept for 4 hours at 37° C. (water bath) with stirring.
Sample c) 20 mg dihydrolipoic acid (0.096 mmol) were added to a 100 ml flask with 60 ml sodium phosphate buffer (5% [w/w], pH=7.0) and stirred until dissolution was completed. 60 mg black currant extract [35% anthocyanosides] (0.037 mmol anthocyanosides expressed as cyanidin-3-O-rutinoside) were added to the flask, filled to volume with sodium phosphate buffer (5% [w/w], pH=7.0) and kept for 4 hours at 37° C. (water bath) with stirring.
Sample d) 20 mg L-cysteine acid (0.165 mmol) were added to a 100 ml flask with 60 ml sodium phosphate buffer (5% [w/w], pH=7.0) and stirred until dissolution was complete. 60 mg black currant extract [35% anthocyanosides] (0.037 mmol anthocyanosides expressed as cyanidin-3-O-rutinoside) were added to the flask, filled to volume with sodium phosphate buffer (5% [w/w], pH=7.0) and kept for 4 hours at 37° C. (water bath) with stirring.
After 4 hours samples were taken, acidified immediately with formic acid to pH=1.0 and analyzed by HPLC for the content of anthocyanosides. Degradation is expressed as decrease in peak area of individual peaks (calculated as % left after 4 hours).
(§2) Samples were prepared as outlined below in HPLC Analytical Method. Test stability samples were immediately acidified (to block degradation) and injected undiluted following the detailed description provided below.
HPLC Analytical Method (Materials, Instruments and Methods): […]

[2] = Example 5: degradation over time of black currant anthocyanosides at 37° C., pH 7.0, with/without GSH (HPLC); conditions: pH 7.0, 37° C.; for %-residual anthocyanosides (% left): 4 hours
Procedure: as §1, with “flask,” for “flask and”, “anthocyanosides.” for “anthocyanosides (Fresh Sample).”, “kept” for “kept for 4 hours”, “stirring and 1 ml” for “stirring. Thereafter”, “Samples),” for “sample),”, “every 15 minutes. The samples were analyzed for selected anthocyanosides by HPLC.” for “and acidified.”
Sample b) 20 mg reduced L-glutathione (0.065 mmol) were added to a 100 ml flask with 60 ml sodium phosphate buffer (5% [w/w], pH=7.0) and stirred until dissolution was complete. 60 mg black currant extract [35% anthocyanosides] (0.037 mmol anthocyanosides expressed as cyanidin-3-O-rutinoside) were added, the flask was filled to volume with sodium phosphate buffer (5% [w/w], pH=7.0) and kept for at 37° C. (water bath) with stirring. Every 15 minutes 1 ml samples were taken and analyzed for selected anthocyanosides by HPLC.
as §2

[3] = Example 8: oxidation of GSH to GSSG in buffer pH 7.0 at 37° C. with/without bilberry extract (HPLC); conditions: buffer pH 7.0, 37° C.
Procedure: Sample a) 60 mg GSH (0.192 mmol) were placed into a 100 ml flask, dissolved and filled up to volume with sodium phosphate buffer (5% [w/w], pH=7.0). The sample was kept with stirring at 37° C. Samples were taken immediately after dissolution and after 1, 2, 3 and 4 hours of incubation. The samples were analyzed by HPLC for GSH and GSSG (representing the oxidized form of GSH).
Sample b) 60 mg reduced L-glutathione (0.192 mmol) were added to a 100 ml flask with 60 ml sodium phosphate buffer (5% [w/w], pH=7.0) and stirred until dissolution was complete. 60 mg bilberry extract [37% anthocyanosides] (0.048 mmol expressed as cyanidin-3-O-glucoside) were added, the flask was filled to volume with sodium phosphate buffer (5% [w/w], pH=7.0) and kept at 37° C. (water bath) with stirring. Samples were taken immediately after dissolution and after 1, 2, 3 and 4 hours of incubation. The samples were analyzed by HPLC for GSH and GSSG (representing the oxidized form of GSH).
as §2

[4] = unprotected, pH 7.0, 37° C., 4 hours

Structure (SMILES): C[C@@H]1O[C@@H](OC[C@H]2O[C@@H](Oc3cc4c(O)cc(O)cc4[o+]c3-c3cc(O)c(O)c(O)c3)[C@H](O)[C@@H](O)[C@@H]2O)[C@H](O)[C@H](O)[C@H]1O [Dp-3-O-Rut, Delphinidin-3-O-rutinoside]
- Peak Area, Fresh solution ([1]; black currant extract 60 mg/100 ml buffer pH 7.0, fresh sample): 5207
- % left, DHLA 20 mg ([1]; pH 7.0, 37° C., 4 hours): 51.7%
- % left, GSH 20 mg ([1]; pH 7.0, 37° C., 4 hours): 53.1%
- % left, L-cysteine 20 mg ([1]; pH 7.0, 37° C., 4 hours): 38.0%
- Peak Area, DHLA 20 mg ([1]; pH 7.0, 37° C., 4 hours): 2692
- Peak Area, GSH 20 mg ([1]; pH 7.0, 37° C., 4 hours): 2764
- Peak Area, L-cysteine 20 mg ([1]; pH 7.0, 37° C., 4 hours): 1975
- % left, Blank [1, 4]: 12.0%
- Peak Area, Blank [1, 4]: 626.2
- Peak Area ([2]; Blank sample, 0:00 h): 5207.5
- Peak Area ([2]; Blank sample, 0:15 h): 3604.2
- Peak Area ([2]; Blank sample, 0:30 h): 3366.5
- Peak Area ([2]; Blank sample, 0:45 h): 2787.9
- Peak Area ([2]; Blank sample, 1:00 h): 2660.6
- Peak Area ([2]; Blank sample, 1:30 h): 2299.5
- Peak Area ([2]; Blank sample, 1:45 h): 2291.6
- Peak Area ([2]; Blank sample, 2:00 h): 1825.7
- Peak Area ([2]; Blank sample, 2:15 h): 1747.2
- Peak Area ([2]; Blank sample, 2:30 h): 1552.5
- Peak Area ([2]; Blank sample, 2:45 h): 1442.9
- Peak Area ([2]; Blank sample, 3:00 h): 1235.4
- Peak Area ([2]; Blank sample, 3:15 h): 1166.0
- Peak Area ([2]; Blank sample, 3:30 h): 907.2
- Peak Area ([2]; Blank sample, 3:45 h): 891.1
- Peak Area ([2]; Blank sample, 4:00 h): 626.2
- %-residual anthocyanosides (% left) ([2]; Blank): 12%
- Peak Area ([2]; GSH protected sample (20 mg), 0:00 h): 5201.3
- Peak Area ([2]; GSH protected sample (20 mg), 0:15 h): 4584.2
- Peak Area ([2]; GSH protected sample (20 mg), 0:45 h): 4275.7
- Peak Area ([2]; GSH protected sample (20 mg), 1:00 h): 4273.1
- Peak Area ([2]; GSH protected sample (20 mg), 1:15 h): 4168.7
- Peak Area ([2]; GSH protected sample (20 mg), 1:45 h): 3749.9
- Peak Area ([2]; GSH protected sample (20 mg), 2:00 h): 3813.3
- Peak Area ([2]; GSH protected sample (20 mg), 2:15 h): 3544.9
- Peak Area ([2]; GSH protected sample (20 mg), 2:45 h): 3199.5
- Peak Area ([2]; GSH protected sample (20 mg), 3:00 h): 3327.2
- Peak Area ([2]; GSH protected sample (20 mg), 3:15 h): 2993.9
- Peak Area ([2]; GSH protected sample (20 mg), 3:45 h): 2761.0
- Peak Area ([2]; GSH protected sample (20 mg), 4:00 h): 2763.6
- Peak Area ([2]; GSH protected sample (20 mg), 4:15 h): 2579.8
- %-residual anthocyanosides (% left) ([2]; GSH-protected): 53%

Structure (SMILES): N[C@@H](CCC(=O)N[C@@H](CS)C(=O)NCC(=O)O)C(=O)O [GSH, reduced L-glutathione]
- Peak Area ([3]; GSH + bilberry Sample, 0 hours): 4760
- peak area Ratio % ([3]; GSH + bilberry Sample, 0 hours): 92.3%
- Peak Area ([3]; GSH + bilberry Sample, 1 hour): 4071
- peak area Ratio % ([3]; GSH + bilberry Sample, 1 hour): 79.0%
- Peak Area ([3]; GSH + bilberry Sample, 2 hours): 3378
- peak area Ratio % ([3]; GSH + bilberry Sample, 2 hours): 65.5%
- Peak Area ([3]; GSH + bilberry Sample, 3 hours): 3045
- peak area Ratio % ([3]; GSH + bilberry Sample, 3 hours): 59.1%
- Peak Area ([3]; GSH + bilberry Sample, 4 hours): 2461
- peak area Ratio % ([3]; GSH + bilberry Sample, 4 hours): 47.7%
- Peak Area ([3]; GSH Sample, 0 hours): 4760
- peak area Ratio % ([3]; GSH Sample, 0 hours): 92.3%
- Peak Area ([3]; GSH Sample, 1 hour): 4744
- peak area Ratio % ([3]; GSH Sample, 1 hour): 92.0%
- Peak Area ([3]; GSH Sample, 2 hours): 4220
- peak area Ratio % ([3]; GSH Sample, 2 hours): 81.9%
- Peak Area ([3]; GSH Sample, 3 hours): 4053
- peak area Ratio % ([3]; GSH Sample, 3 hours): 78.6%
- Peak Area ([3]; GSH Sample, 4 hours): 3777
- peak area Ratio % ([3]; GSH Sample, 4 hours): 73.3%
